Experimental data from patent US11781149B2, “Systems and methods for control of gene expression” (TRUSTEES OF BOSTON UNIVERSITY, priority 2018, dated 2023).
Blank lines part the entries; values can stand above or below the molecule they belong to.

How the values were obtained:
syntrophin PDZ domain = biological target: T1, syntrophin PDZ domain (Mus musculus, UniProt Q61234); assay: Fluorescence anisotropy PDZ-ligand binding, syntrophin, direct and competition; parameters: key to Syn Kd (μM), PDZ affinity (Kp): nb indicates no binding; conditions: for Kd: read-out: Syn Kd (μM), PDZ affinity (Kp)
T1 construct: syn PDZ1; made in house; host or cells: E. coli BL-21 Rosetta (DE3)pLysS, pMAL-c5X vector
T1 sequence (Q61234 77-171): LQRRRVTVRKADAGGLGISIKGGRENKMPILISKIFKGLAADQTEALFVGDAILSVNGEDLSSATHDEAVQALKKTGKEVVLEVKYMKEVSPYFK
Protocol: (§1) Probes were generated by annealing an unlabeled top oligo to a labeled bottom oligo in a 2:1 ratio, while binding competitor oligos were generated using unlabeled top and bottom oligos mixed at equimolar ratios. For PDZ binding experiments, fluorescein-labeled peptide probe (ordered from Selleckhem) used for PDZ binding measurements contained the sequence VKESLV* (SEQ ID NO: 6), where the N-terminus was labeled with a FITC conjugate. Probe concentration was assessed by measuring Abs490. Competitor peptides were purified as MBP-ZF43-8 fusions (see e.g., FIG. 5A-FIG. 5B, FIG. 7A-FIG. 7B).
(§2) All assays were conducted in 20 mM Tris, pH 7.5, 100 mM […], 50 μM ZnCl2 buffer at 25° C. Proteins, probes, and competitor oligos were added to a final volume of 300 μL. Probes were used at 10 nM in all experiments. For complex assembly experiments (FIG. 1C), indicated concentrations of MBP-ZF43-8 harboring a VSKESLV* ligand (SEQ ID NO: 120) (see e.g., FIG. 5A-FIG. 5B, FIG. 7A-FIG. 7B) were titrated against 5 μM concentrations of clamp. Mixtures were allowed to equilibrate at 25° C. for 10 min in Costar black 96-well plates prior to reading. Fluorescence anisotropy (FA) measurements were made at 494 nm using a SpectraMax M5 (Molecular Devices) fluorescence plate reader. For all measurements, anisotropy (r) was calculated using the following equation, wherein I∥ and I⊥ are parallel and perpendicular fluorescence, respectively:
(§3) Fraction of bound probe was calculated using the following equation, wherein rbound and rfree are the anisotropy values for fully bound and fully unbound probe, respectively:
(§4) Each of these values was measured independently of binding curves with either a 100× excess or absence of ZF (in the case of ZF-oligo binding) or PDZ (in the case of PDZ-ligand binding). Q is the ratio of total fluorescence (measured at 454 nm) under rbound and rfree conditions. To obtain binding constants for ZF-probe and PDZ-probe interactions, binding data were fit to the following quadratic equation, wherein [P] is the total concentration of either ZF or PDZ, [probe] is the total concentration of the oligo or peptide probe, and Kd is the dissociation constant of the interaction:
(§5) Competition binding curves were calculated by fitting competition binding curves to the following cubic equation, wherein fb is fraction probe bound, [L*T] is the total probe concentration, [RT] and [R] are total and free concentrations of the ZF, respectively, while [LT] and [L] are total and free concentrations of competitor. Kd1 is the affinity for TF and probe, while Kd2 is the affinity between TF and competitor:
(§6) As a first step toward construction of a molecular assembly scheme amenable to modeling, a set of part variants was identified comprising a range of Kt and Kp values, and then in vitro binding experiments were conducted to directly measure their binding affinities (see e.g., FIG. 6, FIG. 7A, FIG. 7B). […] For each ZF, previously described R-to-A ZF backbone mutations were used as affinity variants (see e.g., Khalil et al., Cell. 150, 647-658 2012). DBM affinity series (DBM1, DBM2, etc.) for both ZFs by were also generated by systematically mutating nucleotides both in the core and directly flanking the core 9-bp recognition sequence (ZF 1: a[…]c (SEQ ID NO: 99); ZF2: a[…]c (SEQ ID NO: 102)). Similarly, PDZ-ligand affinities were measured for two domains (syntrophin ‘syn’ and erbin ‘erb’) and their respective partner ligands. For each pair, ligands of various affinities were obtained from published reports (S1, S2, . . .; E1, E2, . . . )12, 13 (see e.g., FIG. 7A, FIG. 7B). Altogether, this yielded a set of component interactions consisting of 15 ZF-DNA and 13 PDZ-ligand pairs with in vitro-measured values ranging from mid μM to low nM, permitting broad, tunable control of Kt and Kp.
(§7) PDZ-ligand binding constants were measured in vitro by fluorescence anisotropy. Recombinant proteins were purified as described herein. […]

erbin PDZ domain = biological target: T2, erbin PDZ domain (Homo sapiens, UniProt Q96RT1, V1340R); assay: Fluorescence anisotropy PDZ-ligand competition binding, erbin; parameters: key to Erb Kd (μM), PDZ affinity (Kp): nb indicates no binding; conditions: for Kd: read-out: Erb Kd (μM), PDZ affinity (Kp)
T2 construct: made in house; host or cells: E. coli BL-21 Rosetta (DE3)pLysS, pMAL-c5X vector
Protocol: as §1, §2, §3, §4, §5, §6, §7

[1] = test system: HEK293FT reporter cell line; assay: Clamp assembly-mediated transcriptional activation, mCherry reporter by flow cytometry; assay type: cell-based; conditions: transfected into HEK293FT reporter line, 4 tandem DBMs, pMinCMV
From the text: In the work in yeast, clamp-dependent assembly was initially based on the ability of a zinc finger-based synthetic transcription factor (synTF) and clamp to induce higher reporter activation when co-expressed. To test the possibility that assembly-mediated gene expression also works in mammalian cells, a similar approach was taken. Expression plasmids were generated for synTF (sequence descriptions in Example 7) and a 2-unit (nc=2) clamp (sequence description in Example 7), both driven by a strong UBC promoter (pUBC, Ubiquitin C promoter). A corresponding HEK293FT reporter cell line was generated by lentiviral transduction of a synTF-responsive reporter construct, composed of 4 tandem 20-bp DNA-binding motifs (DBMs) upstream of a minimal CMV promoter (pMinCMV) driving expression of an mCherry fluorescent protein.
Different combinations of the synTF and clamp expression plasmids were transfected into the HEK293FT reporter line, and mCherry reporter expression was assayed using flow cytometry (see e.g., FIG. 19).

[2] = test system: DBM oligo probe (FITC labeled); assay: In vitro complex assembly: synTF titration of DBM oligo probe with or without clamp (fluorescence anisotropy); assay type: binding
From the text: FIG. 1A-FIG. 1E is a series of graphs and schematics showing the design scheme for assembly-mediated regulatory control of synthetic gene circuits. (FIG. 1A) Nodes in cellular networks use one-to-one regulatory interactions to execute simple computation-al tasks (top); cooperative interactions within multivalent assemblies enable complex, non-linear signal processing (bottom). (FIG. 1B) Design of synthetic TF regulatory assemblies. Complexes are built from interaction domains (ZF and PDZ) and their respective binding partners (DBM and PDZ ligand). Clamp-mediated synTF complex-formation (TA, transcriptional activator domain drives coding sequence transcription). Interaction affinities (Kt and Kp) and the number of repeated complex units (nc) determine thermodynamics of assembly. (FIG. 1C) In vitro assembly of purified cooperative complex components. Fluorescence anisotropy for synTF titration of DBM oligo probe ([…]) and converted to fraction probe bound (Nb, synTFs with binding-deficient PDZ ligand mutants; nc, number of PDZ domains per clamp and DBMs probe). Points represent mean values for three measurements±SE. (FIG. 1D) Testing in vivo complex assembly in yeast using a synthetic gene circuit (GFP output). All genes are chromosomally-integrated (left; see e.g., Table 4). Small molecule-inducible expression systems (ncTET and ncZEV) control intracellular expression levels (see e.g., FIG. 8A, FIG. 8B) of synTF (induced by ATc, 2-500 ng/mL) and clamp (EST, 0.05-12.5 nM), respectively. Adjusting molecular features of assembly (Kt, Kp, nc) tunes overall circuit transfer function (right). (FIG. 1E) Parameterization of thermodynamic complex assembly model. Dose response data for circuit configurations with various Kt, Kp, nc values were fit to a thermodynamic model (see e.g., FIG. 10, FIG. 11); regression plot showing residual from fit are shown at the right. MAE, mean absolute error.
Thus, synTF binding cooperativity is enhanced by the clamp and scales in magnitude with complex size.
as §2, with “For complex assembly experiments (FIG. 1C), indicated concentrations of MBP-ZF43-8 harboring a VSKESLV* ligand (SEQ ID NO: 120) (see e.g., FIG. 5A-FIG. 5B, FIG. 7A-FIG. 7B) were titrated against 5 μM concentrations of clamp.” left out
Species used in the binding assay are described in FIG. 5A and FIG. 5B, and descriptions for protein purification and the binding assay are described elsewhere herein. […]

T2 sequence (Q96RT1 with tags, fused parts or gaps V1340R): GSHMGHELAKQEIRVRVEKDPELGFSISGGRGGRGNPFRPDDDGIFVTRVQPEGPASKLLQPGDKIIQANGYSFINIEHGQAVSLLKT

Molecule: VKESLV
Kd (syntrophin PDZ domain): 1.97 µM
Kd (erbin PDZ domain): 5.71 µM

Molecule: WLVTWV
Syn Kd (μM), PDZ affinity (Kp) (syntrophin PDZ domain): nb
Kd (erbin PDZ domain): 0.1 µM

Molecule: WLKTWV
Syn Kd (μM), PDZ affinity (Kp) (syntrophin PDZ domain): nb
Kd (erbin PDZ domain): 0.33 µM

Molecule: HLETFF
Kd (syntrophin PDZ domain): 43.2 µM
Erb Kd (μM), PDZ affinity (Kp) (erbin PDZ domain): nb

Molecule: IRETII
Kd (syntrophin PDZ domain): 0.062 µM
Erb Kd (μM), PDZ affinity (Kp) (erbin PDZ domain): nb

B1: clamp: SEQ ID NO: 144, 2-unit clamp of α-syntrophin PDZ domains with 3x FLAG tag and NLS (protein)
chain: MDYKDHDGDYKDHDIDYKDDDDKMAPKKKRKVVELQRRRVTVRKADAGGLGISIKGGRENKMPILISKIFKGLAADQTEALFVGDAILSVNGEDLSSATHDEAVQALKKTGKEVVLEVKYMKEVSPYFKGSGGSSGSGPGSSGGSGPGSGSSGGSGSGPGSGGSSGPGSETELVELQRRRVTVRKADAGGLGISIKGGRENKMPILISKIFKGLAADQTEALFVGDAILSVNGEDLSSATHDEAVQALKKTGKEVVLEVKYMKEVSPYFKG
mCherry reporter expression [1]: enhancement of reporter activation

Second part, led by results:

Kd (syntrophin PDZ domain): 0.49 µM
Kd (erbin PDZ domain): 1.73 µM
Molecule: IRWTIV

Kd (syntrophin PDZ domain): 0.18 µM
Erb Kd (μM), PDZ affinity (Kp) (erbin PDZ domain): nb
Molecule: IRETIL

Kd (syntrophin PDZ domain): 1.57 µM
Kd (erbin PDZ domain): 0.42 µM
Molecule: PVDSWV

Kd (syntrophin PDZ domain): 0.88 µM
Kd (erbin PDZ domain): 3.46 µM
Molecule: IRETIV

Syn Kd (μM), PDZ affinity (Kp) (syntrophin PDZ domain): nb
Erb Kd (μM), PDZ affinity (Kp) (erbin PDZ domain): nb
Molecule: VKEAAA

Kd (syntrophin PDZ domain): 27.3 µM
Erb Kd (μM), PDZ affinity (Kp) (erbin PDZ domain): nb
Molecule: VKEALV

EC50 ([2]; nc=2 probe, without clamp, read-out: affinity of synTFs for the probe (EC50)): 210 nM
B2: synTF: MBP-ZF43-8 fusion harboring a VKESLV-type syntrophin PDZ ligand, titrated against DBM oligo probe (protein)
chain: GEAPFQCRICMANFSRQDRLDRHTRTHTGEKPFQCRICMANFSQKEHLAGHLRTHTGEKPFQCRICMANFSRRDNLNRHLKTHLRGSGSGVKESLV
modifications: left off: large carriers
notes: MBP-ZF43-8 fusion harboring a VKESLV-type syntrophin PDZ ligand, titrated against DBM oligo probe
cooperativity (nH) ([2]; nc=2 probe, two-PDZ clamp added (2 μM)): 1.81
cooperativity (nH) ([2]; nc=2 probe, without clamp): 1.07
cooperativity (nH) ([2]; nc=3 probe and three-repeat clamp): 2.55
